Literature values as cited in US7427608B2, “Protection against and treatment of hearing loss” (The Research Foundation of State University of New York, priority 2001, dated 2008).

Target: p56 lck (Homo sapiens, UniProt P06239)
Details: analyzed with the tyrosine kinase p56^lck; cited from earlier work

Chain of p56 lck (P06239 whole entry, species assumed): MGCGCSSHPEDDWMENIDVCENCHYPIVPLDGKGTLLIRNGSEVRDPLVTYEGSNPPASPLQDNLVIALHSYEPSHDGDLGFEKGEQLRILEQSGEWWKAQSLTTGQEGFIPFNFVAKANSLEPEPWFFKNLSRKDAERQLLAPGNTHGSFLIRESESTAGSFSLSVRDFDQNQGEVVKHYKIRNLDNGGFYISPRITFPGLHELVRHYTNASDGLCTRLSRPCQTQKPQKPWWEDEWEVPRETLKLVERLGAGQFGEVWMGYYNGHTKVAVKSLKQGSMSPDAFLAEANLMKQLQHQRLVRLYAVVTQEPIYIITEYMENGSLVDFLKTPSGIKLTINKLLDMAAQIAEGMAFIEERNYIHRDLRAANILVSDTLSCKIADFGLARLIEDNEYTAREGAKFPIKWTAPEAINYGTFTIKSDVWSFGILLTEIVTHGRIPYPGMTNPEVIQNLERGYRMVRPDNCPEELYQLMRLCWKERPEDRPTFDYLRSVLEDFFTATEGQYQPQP

## Cc1cc(O)c2c(c1)C(=O)c1cc(O)cc(O)c1C2=O [Emodin]
  competition with ATP: ATP-competitive
